Data from ChEMBL document CHEMBL5465560, “Selectivity Literature for EUbOPEN Chemogenomic Library” (2024).
Blank lines part the entries; values can stand above or below the molecule they belong to.

Key:
[1] = target: T1, Serine/threonine-protein kinase Chk1 (Homo sapiens) (UniProt O14757); assay: Selectivity interaction (KinomeScan (DiscoverX)) EUB0000655a CHEK1; conditions: at 10 µM
T1 sequence (whole entry): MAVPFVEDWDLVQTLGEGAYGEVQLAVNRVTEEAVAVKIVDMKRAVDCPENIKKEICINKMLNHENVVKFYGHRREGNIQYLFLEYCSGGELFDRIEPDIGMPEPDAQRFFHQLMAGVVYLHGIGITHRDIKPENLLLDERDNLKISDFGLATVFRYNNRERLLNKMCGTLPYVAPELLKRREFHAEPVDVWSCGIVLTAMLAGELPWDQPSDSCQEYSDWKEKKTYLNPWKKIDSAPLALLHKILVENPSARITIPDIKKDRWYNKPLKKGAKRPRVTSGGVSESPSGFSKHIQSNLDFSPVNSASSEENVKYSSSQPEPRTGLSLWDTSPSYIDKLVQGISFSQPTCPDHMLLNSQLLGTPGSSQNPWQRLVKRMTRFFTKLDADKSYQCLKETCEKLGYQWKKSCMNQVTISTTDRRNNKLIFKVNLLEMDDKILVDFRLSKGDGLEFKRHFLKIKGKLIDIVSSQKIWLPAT

[2] = target: Focal adhesion kinase 1 (Homo sapiens, UniProt Q05397); assay: Selectivity interaction (KinomeScan (DiscoverX)) EUB0000618a PTK2; conditions: at 10 µM
[3] = target: Mitogen-activated protein kinase 11 (Homo sapiens) (UniProt Q15759); assay: Selectivity interaction (KinomeScan (DiscoverX)) EUB0000607a MAPK11; conditions: at 10 µM
[4] = target: Leukocyte tyrosine kinase receptor (Homo sapiens, UniProt P29376); assay: Selectivity interaction (KinomeScan (DiscoverX)) EUB0001619a LTK; conditions: at 1 µM
[5] = target: Ribosomal protein S6 kinase alpha-3 (Homo sapiens, UniProt P51812); assay: Selectivity interaction (ActivX KiNativ screen (ex vivo kinase selectivity in human PBMCs)) EUB0001619a RPS6KA3; format: cell-based; conditions: PBMC, at 1 µM
[6] = target: Serine/threonine-protein kinase WNK2 (Homo sapiens) (UniProt Q9Y3S1); assay: Selectivity interaction (Upstate Kinase Profiler service (Millipore)) EUB0000056c WNK2; conditions: at 1 µM
[7] = target: Cyclin-dependent kinase 17 (Homo sapiens) (UniProt Q00537); assay: Selectivity interaction (ActivX KiNativ screen (kinase selectivity in THP-1 cell lysates)) EUB0000639a CDK17; format: subcellular; conditions: lysate, at 1 µM
[8] = target: Sphingosine kinase 1 (Homo sapiens) (UniProt Q9NYA1); assay: Selectivity interaction (Kinase panel (Invitrogen)) EUB0000639a SPHK1; conditions: at 200 nM
[9] = target: Dual specificity protein kinase CLK3 (Homo sapiens, UniProt P49761); assay: Selectivity interaction (KinomeScan (DiscoverX)) EUB0000229b CLK3; conditions: at 10 µM
[10] = target: T2, Mitogen-activated protein kinase kinase kinase kinase 2 (Homo sapiens) (UniProt Q12851); assay: Selectivity interaction (ProQinase) EUB0000171b MAP4K2
T2 sequence (whole entry): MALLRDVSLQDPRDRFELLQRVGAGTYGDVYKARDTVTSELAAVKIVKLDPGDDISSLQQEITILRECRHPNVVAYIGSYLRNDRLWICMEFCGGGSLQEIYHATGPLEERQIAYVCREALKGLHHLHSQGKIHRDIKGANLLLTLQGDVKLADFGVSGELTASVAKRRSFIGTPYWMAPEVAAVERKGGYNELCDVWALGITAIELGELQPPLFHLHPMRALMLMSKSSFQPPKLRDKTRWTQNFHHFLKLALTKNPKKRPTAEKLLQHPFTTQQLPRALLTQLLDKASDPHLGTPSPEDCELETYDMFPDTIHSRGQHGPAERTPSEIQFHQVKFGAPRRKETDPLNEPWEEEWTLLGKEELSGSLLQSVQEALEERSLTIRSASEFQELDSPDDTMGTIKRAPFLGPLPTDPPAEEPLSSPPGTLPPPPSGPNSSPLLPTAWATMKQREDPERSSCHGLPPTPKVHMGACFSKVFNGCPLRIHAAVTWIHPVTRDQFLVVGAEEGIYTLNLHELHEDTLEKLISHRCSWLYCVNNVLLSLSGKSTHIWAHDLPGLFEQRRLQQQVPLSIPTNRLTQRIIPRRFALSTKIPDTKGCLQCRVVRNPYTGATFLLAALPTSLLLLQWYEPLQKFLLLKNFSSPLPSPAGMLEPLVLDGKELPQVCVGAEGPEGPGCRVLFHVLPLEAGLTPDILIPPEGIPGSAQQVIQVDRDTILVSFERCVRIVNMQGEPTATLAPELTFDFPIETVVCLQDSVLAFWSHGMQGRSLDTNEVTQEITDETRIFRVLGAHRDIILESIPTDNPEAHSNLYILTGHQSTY

[11] = target: T3, Bone morphogenetic protein receptor type-2 (Homo sapiens) (UniProt Q13873); assay: Selectivity interaction (KinomeScan (DiscoverX)) EUB0000666a BMPR2; conditions: at 10 µM
T3 sequence (whole entry): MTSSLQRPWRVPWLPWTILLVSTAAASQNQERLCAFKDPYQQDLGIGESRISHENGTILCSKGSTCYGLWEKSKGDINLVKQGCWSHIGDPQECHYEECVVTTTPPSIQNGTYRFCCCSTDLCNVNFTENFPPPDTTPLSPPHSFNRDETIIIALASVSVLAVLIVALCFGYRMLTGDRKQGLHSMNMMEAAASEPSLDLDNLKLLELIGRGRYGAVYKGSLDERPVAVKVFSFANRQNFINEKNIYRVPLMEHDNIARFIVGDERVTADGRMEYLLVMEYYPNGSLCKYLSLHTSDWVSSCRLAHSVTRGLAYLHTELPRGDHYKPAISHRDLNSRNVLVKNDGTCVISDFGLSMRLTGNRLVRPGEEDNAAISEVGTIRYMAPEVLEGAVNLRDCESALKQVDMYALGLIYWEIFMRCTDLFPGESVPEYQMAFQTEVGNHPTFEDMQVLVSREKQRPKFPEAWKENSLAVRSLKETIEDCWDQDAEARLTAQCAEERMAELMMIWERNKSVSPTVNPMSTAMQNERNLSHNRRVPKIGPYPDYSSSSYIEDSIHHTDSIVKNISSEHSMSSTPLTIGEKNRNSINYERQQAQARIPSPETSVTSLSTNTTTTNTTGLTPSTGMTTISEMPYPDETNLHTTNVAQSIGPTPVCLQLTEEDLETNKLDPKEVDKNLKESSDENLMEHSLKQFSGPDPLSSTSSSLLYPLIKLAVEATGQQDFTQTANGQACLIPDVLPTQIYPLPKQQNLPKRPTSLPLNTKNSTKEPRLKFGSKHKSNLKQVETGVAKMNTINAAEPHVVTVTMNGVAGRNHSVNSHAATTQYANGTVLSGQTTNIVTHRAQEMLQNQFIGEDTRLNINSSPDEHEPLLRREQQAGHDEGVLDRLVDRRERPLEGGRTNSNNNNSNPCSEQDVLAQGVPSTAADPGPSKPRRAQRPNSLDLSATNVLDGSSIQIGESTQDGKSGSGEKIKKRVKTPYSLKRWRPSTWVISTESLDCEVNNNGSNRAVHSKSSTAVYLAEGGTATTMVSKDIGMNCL

Sphingosine kinase 1 (Homo sapiens), sequence (Q9NYA1 whole entry): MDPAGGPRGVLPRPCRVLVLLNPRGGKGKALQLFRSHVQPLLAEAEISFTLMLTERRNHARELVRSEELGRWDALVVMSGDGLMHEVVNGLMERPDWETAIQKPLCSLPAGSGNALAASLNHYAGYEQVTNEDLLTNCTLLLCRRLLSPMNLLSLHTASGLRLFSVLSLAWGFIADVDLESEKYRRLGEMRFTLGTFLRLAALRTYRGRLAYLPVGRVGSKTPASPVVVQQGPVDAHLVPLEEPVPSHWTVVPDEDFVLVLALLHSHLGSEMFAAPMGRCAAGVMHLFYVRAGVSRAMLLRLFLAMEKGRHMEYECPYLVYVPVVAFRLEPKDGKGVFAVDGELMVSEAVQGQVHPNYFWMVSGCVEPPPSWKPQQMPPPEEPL
Mitogen-activated protein kinase 11 (Homo sapiens), sequence (Q15759 whole entry): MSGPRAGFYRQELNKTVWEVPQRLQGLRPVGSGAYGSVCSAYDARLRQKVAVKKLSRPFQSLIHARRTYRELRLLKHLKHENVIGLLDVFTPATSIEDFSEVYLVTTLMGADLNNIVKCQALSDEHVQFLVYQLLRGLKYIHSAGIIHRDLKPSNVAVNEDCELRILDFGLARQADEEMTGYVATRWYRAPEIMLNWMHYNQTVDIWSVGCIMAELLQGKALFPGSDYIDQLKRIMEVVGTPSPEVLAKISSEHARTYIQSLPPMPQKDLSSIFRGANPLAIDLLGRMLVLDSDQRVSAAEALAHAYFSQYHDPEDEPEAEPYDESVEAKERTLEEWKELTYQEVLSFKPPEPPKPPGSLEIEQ
Focal adhesion kinase 1, sequence (Q05397 2-1052 limits assumed): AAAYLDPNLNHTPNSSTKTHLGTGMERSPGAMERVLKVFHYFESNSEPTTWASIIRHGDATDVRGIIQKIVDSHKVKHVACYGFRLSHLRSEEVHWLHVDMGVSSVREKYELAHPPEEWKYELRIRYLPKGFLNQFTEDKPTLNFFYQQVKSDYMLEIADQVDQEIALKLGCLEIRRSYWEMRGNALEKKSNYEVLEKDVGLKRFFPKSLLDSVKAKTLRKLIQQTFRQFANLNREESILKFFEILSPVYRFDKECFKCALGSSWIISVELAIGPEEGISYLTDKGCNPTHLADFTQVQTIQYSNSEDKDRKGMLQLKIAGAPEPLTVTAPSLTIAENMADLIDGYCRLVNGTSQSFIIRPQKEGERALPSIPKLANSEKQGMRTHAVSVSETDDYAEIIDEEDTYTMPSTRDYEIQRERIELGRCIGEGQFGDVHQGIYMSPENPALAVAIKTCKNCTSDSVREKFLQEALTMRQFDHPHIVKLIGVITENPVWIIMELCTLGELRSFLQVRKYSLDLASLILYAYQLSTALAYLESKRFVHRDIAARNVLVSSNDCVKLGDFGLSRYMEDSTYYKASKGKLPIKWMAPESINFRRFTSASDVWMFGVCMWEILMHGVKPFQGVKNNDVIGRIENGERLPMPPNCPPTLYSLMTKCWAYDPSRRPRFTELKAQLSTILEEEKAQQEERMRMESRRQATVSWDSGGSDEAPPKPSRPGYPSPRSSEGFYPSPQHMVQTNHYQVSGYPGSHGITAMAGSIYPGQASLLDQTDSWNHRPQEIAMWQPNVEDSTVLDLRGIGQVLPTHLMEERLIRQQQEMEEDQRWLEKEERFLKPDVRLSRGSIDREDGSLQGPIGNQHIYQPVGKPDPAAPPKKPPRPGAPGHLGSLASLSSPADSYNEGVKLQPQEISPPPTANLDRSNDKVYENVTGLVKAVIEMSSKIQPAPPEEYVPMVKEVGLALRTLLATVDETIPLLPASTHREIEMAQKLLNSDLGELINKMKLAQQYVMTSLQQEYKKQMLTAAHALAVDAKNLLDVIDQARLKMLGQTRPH
Cyclin-dependent kinase 17 (Homo sapiens), sequence (Q00537 whole entry, looked up): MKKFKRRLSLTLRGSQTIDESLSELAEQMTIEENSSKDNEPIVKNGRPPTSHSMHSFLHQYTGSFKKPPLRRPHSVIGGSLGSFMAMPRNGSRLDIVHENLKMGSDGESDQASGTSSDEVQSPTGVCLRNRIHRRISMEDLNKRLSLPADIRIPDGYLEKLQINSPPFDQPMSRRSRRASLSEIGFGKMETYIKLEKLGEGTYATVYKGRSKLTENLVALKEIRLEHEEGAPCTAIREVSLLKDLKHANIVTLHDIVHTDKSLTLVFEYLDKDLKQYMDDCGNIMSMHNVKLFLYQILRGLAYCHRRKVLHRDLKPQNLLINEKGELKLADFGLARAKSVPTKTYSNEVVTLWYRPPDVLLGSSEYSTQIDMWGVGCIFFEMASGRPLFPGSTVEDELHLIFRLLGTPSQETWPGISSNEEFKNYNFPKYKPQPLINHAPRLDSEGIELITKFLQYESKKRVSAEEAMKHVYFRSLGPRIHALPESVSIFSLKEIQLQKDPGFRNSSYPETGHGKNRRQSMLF
Leukocyte tyrosine kinase receptor, sequence (P29376 whole entry): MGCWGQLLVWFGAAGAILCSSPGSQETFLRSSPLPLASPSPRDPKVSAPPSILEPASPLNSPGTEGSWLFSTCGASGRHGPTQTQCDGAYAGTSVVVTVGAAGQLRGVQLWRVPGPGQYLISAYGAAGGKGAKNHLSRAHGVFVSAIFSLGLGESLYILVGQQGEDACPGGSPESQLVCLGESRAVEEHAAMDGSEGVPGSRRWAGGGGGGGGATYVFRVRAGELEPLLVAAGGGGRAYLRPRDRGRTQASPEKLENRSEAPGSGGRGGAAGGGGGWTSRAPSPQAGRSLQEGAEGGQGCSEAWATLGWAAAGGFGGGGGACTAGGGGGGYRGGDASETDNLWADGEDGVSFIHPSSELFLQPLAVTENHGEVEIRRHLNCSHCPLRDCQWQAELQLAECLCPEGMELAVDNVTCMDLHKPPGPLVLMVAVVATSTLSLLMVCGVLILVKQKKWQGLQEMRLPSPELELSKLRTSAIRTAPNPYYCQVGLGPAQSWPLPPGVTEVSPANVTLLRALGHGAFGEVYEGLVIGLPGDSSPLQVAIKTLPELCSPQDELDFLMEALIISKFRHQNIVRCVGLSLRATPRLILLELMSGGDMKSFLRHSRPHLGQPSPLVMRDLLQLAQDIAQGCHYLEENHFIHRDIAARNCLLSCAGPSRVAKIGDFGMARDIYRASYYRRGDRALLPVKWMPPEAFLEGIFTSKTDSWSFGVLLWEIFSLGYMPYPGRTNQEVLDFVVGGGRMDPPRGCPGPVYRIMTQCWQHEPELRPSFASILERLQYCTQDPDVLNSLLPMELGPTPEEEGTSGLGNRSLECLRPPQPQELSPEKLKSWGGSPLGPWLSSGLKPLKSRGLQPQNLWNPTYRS
Ribosomal protein S6 kinase alpha-3, sequence (P51812 whole entry): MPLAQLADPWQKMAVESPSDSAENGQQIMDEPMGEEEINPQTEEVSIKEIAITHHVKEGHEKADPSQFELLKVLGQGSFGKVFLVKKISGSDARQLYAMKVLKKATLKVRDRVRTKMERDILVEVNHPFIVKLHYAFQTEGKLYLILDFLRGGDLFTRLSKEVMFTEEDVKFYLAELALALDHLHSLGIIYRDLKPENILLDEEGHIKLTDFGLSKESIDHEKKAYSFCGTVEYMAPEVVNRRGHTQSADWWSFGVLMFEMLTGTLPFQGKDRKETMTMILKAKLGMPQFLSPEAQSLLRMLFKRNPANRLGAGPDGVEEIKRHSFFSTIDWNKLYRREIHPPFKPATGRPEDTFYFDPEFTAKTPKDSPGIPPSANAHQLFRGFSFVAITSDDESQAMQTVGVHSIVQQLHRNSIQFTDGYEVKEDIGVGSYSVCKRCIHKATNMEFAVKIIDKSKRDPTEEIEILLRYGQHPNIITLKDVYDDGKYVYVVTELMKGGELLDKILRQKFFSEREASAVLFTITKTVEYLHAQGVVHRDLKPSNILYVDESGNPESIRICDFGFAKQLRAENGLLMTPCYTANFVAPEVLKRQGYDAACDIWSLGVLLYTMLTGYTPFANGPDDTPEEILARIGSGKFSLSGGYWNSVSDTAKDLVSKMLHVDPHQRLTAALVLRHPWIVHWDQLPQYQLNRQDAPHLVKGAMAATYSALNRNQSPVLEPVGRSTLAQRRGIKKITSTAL
Dual specificity protein kinase CLK3, sequence (P49761 whole entry, looked up): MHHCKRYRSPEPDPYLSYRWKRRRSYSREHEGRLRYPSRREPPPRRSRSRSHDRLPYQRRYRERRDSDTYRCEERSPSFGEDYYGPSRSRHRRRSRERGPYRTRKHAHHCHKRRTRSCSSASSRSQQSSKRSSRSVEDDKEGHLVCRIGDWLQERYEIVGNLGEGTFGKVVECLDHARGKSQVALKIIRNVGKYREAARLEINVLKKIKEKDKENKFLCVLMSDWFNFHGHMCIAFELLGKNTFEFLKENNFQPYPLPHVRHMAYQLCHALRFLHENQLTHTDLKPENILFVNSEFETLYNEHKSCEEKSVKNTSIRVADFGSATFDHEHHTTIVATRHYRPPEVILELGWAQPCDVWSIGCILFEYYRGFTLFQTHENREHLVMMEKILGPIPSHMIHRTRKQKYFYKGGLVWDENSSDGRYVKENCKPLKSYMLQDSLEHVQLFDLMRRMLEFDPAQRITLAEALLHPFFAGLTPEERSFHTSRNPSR

Compound: CN(C)CCOc1ccc(-c2nc(-c3ccncc3)c(-c3ccc4c(c3)CC/C4=N\O)[nH]2)cc1
% of control [1]: 80%

Compound: O[C@H]1CC[C@H](Nc2ncc3nc(Nc4c(F)cc(F)cc4F)n([C@H]4CCOC4)c3n2)CC1
% of control [2]: 100%

Compound: CNC(=O)Nc1ccc(-c2nc(N3CC4CCC(C3)O4)c3cnn(C4CCC5(CC4)OCCO5)c3n2)cc1
% of control [3]: 100%

Compound: N#Cc1cccc(-c2c[nH]c3ncnc(N4CCOCC4)c23)c1
% of control [4]: 100% | % of inhibition [5]: 6%

% of inhibition [6]: 1%
Compound: Cc1ccc(-c2ccc3c(ccc4sc5c(c43)NC[C@@H](C)NC5=O)n2)cn1

% of inhibition [7]: 3.9% | % of inhibition [8]: 2.77%
Compound: CC[C@@H]1[C@H](F)C(=O)N[C@@H]1COc1nccc2cc(C(N)=O)c(OC)cc12 [ZIMLOVISERTIB]

Compound: COc1cc(N(C)c2ccnc3ccc(C(F)(F)F)cc23)cc(OC)c1OC
% binding [9]: 59%

% of control ([10]; at 1 µM): 89% | % of control ([10]; at 5 µM): 50%
Compound: C=CC(=O)Nc1cccc(C(=O)Nc2ccc(Nc3cc(-c4[nH]c(SC)nc4C)ccn3)cc2)c1

Compound: O=C(NOC[C@H](O)CO)c1ccc(F)c(F)c1Nc1ccc(I)cc1F
% of control [11]: 81%
